Several values for one entry are separate records, joined by “and”; a condition that tells them apart may be missing. Identical values can stand only once.
How the values were obtained:
[1] = system: murine Lewis lung xenografts; conditions: low dose of 0.01 mg/kg; cited from earlier work
MDA-MB-468 = experiment: Drug cytotoxicity assay (cell count after 4 days in test media), MDA-MB-468; assay type: cell-based; conditions: Homo sapiens, 96 h, 5-FU alone
Protocol: A stock of HA solution (10 μM, 7 mg/ml) was prepared by dissolving desiccated HA (modal Mr 7×10^5 Da,) in 0.9% w/v pyrogen-free injection grade NaCl. To ensure a homogenous solution the HA was dissolved overnight at 4° C. followed by thorough vortexing. To ensure that ‘the HA had maintained its molecular weight during the preparation of the stock solution, the solution was analysed on a Sephacryl S-1000 size exclusion gel with column −40 specifications of 1.6 cm×70 cm, sample size 2 ml, flow rate 18.1/h and 2 ml fraction size. The HA was used at a final concentration of 1000 nm, with all dilutions made in the appropriate growth medium.
Based on these plasma concentrations in vivo the following drug concentrations were selected; 0, 1, 5, 10, 20, 50, 100 μM 5-FU±100 nM HA. […] When the cultures reached confluence the cells were removed from the flasks in 0.25% trypsin/0.05% EDTA. The single-cell suspension was counted with a Coulter counter (ZM1 model) and cells were resuspended to 100,000 cells/ml in cell-specific media. Cells were plated into 24-well plates (2 cm^2 surface area) by adding 0.5 ml of cell suspension per well, resulting in 50,000 cells/well. […] After 4 days of growth in test media the cultures were washed with HBSS, the cells removed from the well by trypsinisation with 0.25% trypsin/0.05% EDTA and cells were counted with a Coulter Counter.

[2] = system: Human Breast Cancer Xenografts (MDA-MB-468); experiment: 5-FU/HA adjuvant therapy efficacy, 6-week study; assay type: in vivo
Protocol: (§1) One of the most commonly used treatment regimens for human breast cancer is cyclophosphamide, methotrexate and 5-fluorouacil which is administered on day 1 and 8 of a 28 day cycle. In human breast cancer the initial treatment regimen is for 6 cycles at which time the patient condition is re-assessed, therefore we tried to simulate the human treatment regimen as closely as possible by exposing the mice to 6 cycles (6 months) of treatment in a long term efficacy study and a 6 cycles (6 week) short term efficacy study. Considering the life cycle of a mouse is approximately 2 years we commenced both short-term and long-term treatment protocols as shown in Table 8.
(§2) Mice were randomly divided into 7 groups of 8 animals per group for the short term study and 5 groups of 8 animals for the long term study (refer to Table 8 for dosage and treatment administration schedule).
(§3) Animals were weighed and tumour volumes measured on the day of treatment application for long term study as described in Example 8. In the 6-week study animals were weighed and tumour volumes measured on a daily basis. […] It has been experimentally proven that stress can be a major factor in a patients response to chemotherapy (Shackney et al, 1978), therefore we ensured that equal numbers of mice were allocated to each cage, the animal number per cage varied from 5-8 depending on the stage of experimentation.
(§4) The experimental end-point occurred when the animal had to be euthanised due to degree of disease progression or when the 6 month (long term) or 6 week (short term) treatment regimen was completed. Due to the animal ethics guidelines the animals were monitored fortnightly by an independent animal ethics officer who assessed the degree of disease progression.
The tissue was fixed for 16-24 h before histological processing. Fixed tissue was dehydrated stepwise to 100% ethanol and embedded in paraffin blocks from which 2-4 μm sections were placed on glass microscope slides. Staining the tissue sections with a haematoxylin nuclear stain and eosin cytoplasmic stain highlighted any pathological features that could indicate treatment toxicity.
Nine to 11 lymph nodes were collected per animal, ensuring that all nodes which drained the tumour area were collected. There are currently two methods used for the detection of lymph node metastasis:
The haematoxylin and eosin stained lymph nodes were examined by Dr P. Allen (certified pathologist) where each node was microscopically examined for the presence of tumour cells. The CEA immunostained lymph nodes were microscopically examined, where any positively stained nodes were counted and considered positive for lymph node metastasis.
Tumour volume was monitored on a daily or weekly basis by calliper measurements and tumour volume calculated as previously described in example 8.
One of the most common toxic effects of 5-FU is on the gastro-intestinal tract where haemorrhagic enteritis and intestinal perforation can occur (Martindale, 1993). Animals were monitored daily for GI tract upset such as diarrhoea and weekly for more severe toxicity manifestations such as weight loss. Weight loss was monitored by calculating net body weight as estimated by subtracting tumour weight, which was calculated as 1 g×tumour volume (cm^3) as cited in Shibamoto et al, 1996.

[3] = system: Human Breast Cancer Xenografts (MDA-MB-468); experiment: 5-FU/HA adjuvant therapy efficacy, 6-month study; assay type: in vivo
Protocol: as §1, §2, §3, §4
The TDT is the time taken (days) for a tumour to double in mass or cell number, a parameter of tumour growth which is simple to measure and can be easily related to clinical tumour behaviour in conceptional terms (Shackney et al, 1978). By monitoring the tumour doubling time it is often possible to evaluate tumour chemotherapeutic response, as slowly growing tumours tend to respond poorly to chemotherapy (Schabel, 1975).
The overall patient survival time was calculated as the time (days or weeks) that the animal lived after the commencement of treatment.

[4] = 1H NMR titration and diffusion experiments of 5-FU with HA; assay type: physicochemical; conditions: 600 MHz 1H NMR titration; HA 750 kDa, 3 mg/mL; pH 8.8 to 9.1
Protocol: To further investigate the nature of the interaction between HA and chemotherapeutic drugs 1H Nuclear Magnetic Resonance (NMR) spectroscopy was used. Deuterium oxide (^2H2O (99.96%)) was obtained from Cambridge Isotope Laboratories. MTX was obtained from Faulding Pharmaceuticals and 5-FU and HA stock solutions were prepared as described previously.
Spectra were recorded at 298 K on a Brüker DRX spectrometer operating at 600 MHz with a shielded gradient unit. The 2D experiments were recorded in phase-sensitive mode using time-proportional phase incrementation for quadrature detection in the t1 dimension (Marion & Wüthrich, 1983). The 2D experiments included TOCSY sequence using a MLEV-17 spin lock sequence (Bax & Davis, 1985) with a mixing time of 120 ms; NOESY (Kumar et al., 1980) with mixing times of 250 and 400 ms and ROESY spectrum with a mixing time of 250 ms. Temperature calibration of the probe was achieved by comparison to ethylene glycol chemical shifts. All chemical shifts (ppm) were referenced to the methyl resonance of 4,4-dimethyl-4-silapentane-1-sulfonate (DSS, 0 ppm).
NMR diffusion experiments were acquired on a Brüker AMX spectrometer equipped with a gradient control unit operating at 500 MHz. All experiments were acquired with 16 or 64 scans at 298 K over 16K of data points and 7575 Hz. A gradient strength of 15.44 G/cm was employed for the diffusion experiments. […]

[5] = iv 10.5 mg/kg (400 mg/m^2), within 30 min; cited from earlier work
[6] = in vivo; cited from earlier work
[7] = 1H NMR deuterium exchange and transferred NOESY of MTX with HA; assay type: physicochemical
Source text: Solvent suppression of the water signal for NOESY, ROESY and TOCSY experiments was achieved using a modified WATERGATE sequence (Piotto et al., 1992) in which two gradient pulses of 1 ms was applied on either side of a binomial 3-9-19 pulse. Spectra was routinely acquired over 6024 Hz with 4096 complex data points in F2 and 512 increments in the F1 dimension, with 32 scans per increment for the TOCSY experiments and 80 scans for the NOESY. Slowly exchanging NH protons were detected by acquiring a series of one-dimensional (1D) spectra acquired over 16K data points and with 32 scans. […]

[8] = control schedule HA D1,3 / 5-FU D 2, 4 of 7 day cycle

CO[C@@]12[C@H](COC(N)=O)C3=C(C(=O)C(C)=C(N)C3=O)N1C[C@@H]1N[C@@H]12 [mitomycin C]
anti-tumour activity [1]: did not demonstrate anti-tumour activity

O=c1[nH]cc(F)c(=O)[nH]1 [5-FU, 5-fluorouracil]
IC50 (MDA-MB-468): > 50 µM
primary tumour at end of the 6 week study compared with the saline group [2]: significantly smaller tumours
Number of animal completing treatment [2, 8]: 8/8
TDT Mean ± SEM [2, 8]: 15.3 ± 2.5 days
% of animals with lymph node metastasis ([2]; days 1 & 2 of 7 day cycle): 100%
% of lymph node involved per animal mean ± SEM ([2]; days 1 & 2 of 7 day cycle): 14.3 ± 2.9%
Number of new tumours ([2]; days 1 & 2 of 7 day cycle): 1
Number of animal completing treatment ([2]; days 1 & 2 of 7 day cycle (HA followed by 5-FU: days 1-4)): 8/8
TDT Mean ± SEM ([2]; days 1 & 2 of 7 day cycle (HA followed by 5-FU: days 1-4), 30 mg/kg 5-FU, 12.5 mg/kg HA): 32.1 ± 3.5 days
Experimental endpoint: immobilsed ([3]; 6-month study, % of animals): 62.5% immobilsed
mice experiencing a cure (tumours fully necrosed and dropped off) ([3]; 6-month study, after approximately 12 weeks of treatment): did not experience a “cure”
TDT Mean ± SEM ([3]; 6-month study, days 1 & 8 of 28 day cycle (HA followed by 5-FU: days 1, 2, 8, 9)): 22.7 ± 2.9 days
Experimental endpoint: metabolic stress ([3]; mouse, in vivo): 37.5% metabolic
interaction of 5-FU with HA (chemical shift of CH peak) [4]: does not appear to be interacting
peak plasma level [5]: 8 μg/ml and 61 μM
cure rate [6]: 26%

CN(Cc1cnc2nc(N)nc(N)c2n1)c1ccc(C(=O)N[C@@H](CCC(=O)O)C(=O)O)cc1 [MTX, methotrexate]
time for all amine hydrogens of MTX to exchange with deuterium ([7]; MTX and HA in 0.5% w/v Na2CO3 (pH 9), deuterium oxide added): ≤ 4 min
interaction between MTX and HA (transferred NOESY) ([7]; MTX/HA, no crosspeaks): negligible interaction
